Test results taken from article PMC8536124 (International Journal of Molecular Sciences, 2021).

Key:
HL-60(TB) = experiment: NCI-60 screening (SRB); type: cell-based, human; settings: HL-60(TB), five-dose
Breast cancer = experiment: NCI-60 screening (SRB), subpanel; type: cell-based
Text: (§1) The experimental data allow the assessment of the cytostatic effect, indicated by growth inhibition values ranging between 0 and 100, as well as of the cytotoxic effect, indicated by negative values.
(§2) The mean GI50 (molar concentration of the compound that inhibits 50% net cell growth), TGI (molar concentration of the compound leading to the total inhibition), and LC50 (molar concentration of the compound leading to 50% net cell death (presented in negative logarithm)) values across each cell line are shown in Table 2.
(§3) The selectivity index (SI), calculated as the ratio between the full panel MG_MID60 (μM) of compounds 4, 6, and 9 by their respective subpanels MG_MID of the cell line (μM), was introduced as a quantification tool for the selectivity of each compound in terms of anticancer effect (Table 3).
(§4) Primary anticancer assays were performed according to the NCI protocol, as described elsewhere (see e.g., http://dtp.nci.nih.gov accessed on 1 November 2018). The compounds were added at a single concentration, and the cell cultures were incubated for 48 h. The end point determinations were made with a protein-binding dye, sulforhodamine B (SRB). […] The percentage of growth was evaluated spectrophotometrically versus controls not treated with test agents after 48 h exposure and using SRB protein assay to estimate cell viability or growth. Three antitumor activity dose-response parameters were calculated for each cell line. Furthermore, mean graph midpoints (MG_MID) were calculated for each of the parameters, giving an average activity parameter over all cell lines for the tested compound. For the MG_MID calculation, insensitive cell lines were included with the highest concentration tested.

Colon Cancer = experiment: NCI-60 screening (SRB), subpanel; type: cell-based
Text: as §1, §2, §3, §4

Leukemia = experiment: NCI-60 screening (SRB), subpanel; type: cell-based; settings: Leukemia; MG_MID60/subpanel MG_MID
Text: as §1, §2, §3, §4

Melanoma = experiment: NCI-60 screening (SRB), subpanel; type: cell-based
Text: as §1, §2, §3, §4

NSC lung cancer = experiment: NCI-60 screening (SRB), subpanel; type: cell-based
Text: as §1, §2, §3, §4

Ovarian cancer = experiment: NCI-60 screening (SRB), subpanel; type: cell-based
Text: as §1, §2, §3, §4

Prostate cancer = experiment: NCI-60 screening (SRB), subpanel; type: cell-based
Text: as §1, §2, §3, §4

Renal Cancer = experiment: NCI-60 screening (SRB), subpanel; type: cell-based
Text: as §1, §2, §3, §4

A549/ATCC = experiment: NCI-60 screening (SRB); type: cell-based, human; settings: five-dose
NCI-H226 = experiment: NCI-60 screening (SRB); type: cell-based, human; settings: five-dose
NCI-H322M = experiment: NCI-60 screening (SRB); type: cell-based, human; settings: five-dose
NCI-H460 = experiment: NCI-60 screening (SRB); type: cell-based, human; settings: five-dose
NCI-H522 = experiment: NCI-60 screening (SRB); type: cell-based, human; settings: five-dose
COLO 205 = experiment: NCI-60 screening (SRB); type: cell-based, human; settings: five-dose
HCT-116 = experiment: NCI-60 screening (SRB); type: cell-based, human; settings: five-dose
HT29 = experiment: NCI-60 screening (SRB); type: cell-based, human
KM12 = experiment: NCI-60 screening (SRB); type: cell-based, human; settings: five-dose
SNB-19 = experiment: NCI-60 screening (SRB); type: cell-based, human; settings: five-dose
OVCAR-3 = experiment: NCI-60 screening (SRB); type: cell-based, human; settings: five-dose
NCI/ADR-RES = experiment: NCI-60 screening (SRB); type: cell-based, human; settings: five-dose
786-0 = experiment: NCI-60 screening (SRB); type: cell-based, human; settings: five-dose
ACHN = experiment: NCI-60 screening (SRB); type: cell-based, human; settings: five-dose
MCF7 = experiment: NCI-60 screening (SRB); type: cell-based, human; settings: five-dose
MDA-MB-468 = experiment: NCI-60 screening (SRB); type: cell-based, human; settings: five-dose
[1] = Homo sapiens, read-out: LC50 (the source's name)

## CCN1CCN(C(=O)[C@]23CC[C@@H](C)[C@H](C)[C@H]2C2=CC[C@@H]4[C@@]5(C)CCC(=O)C(C)(C)[C@@H]5CC[C@@]4(C)[C@]2(C)CC3)CC1 [Compound 4, N-(3-oxo-ursan-12-en-28-oyl)-ethylpiperazine]
HL-60(TB)
  TGI: 2.74 µM
HL-60(TB); Homo sapiens
  GI50: 0.976 µM
HL-60(TB); [1]
  CC50: > 50 µM
Breast cancer; Breast cancer subpanel, five-dose
  TGI MG_MID: 2.33 µM
Breast cancer; Breast cancer, MG_MID60/subpanel MG_MID
  SI (TGI): 1.17
Breast cancer; Homo sapiens, Breast cancer subpanel, five-dose, read-out: GI50 MG_MID
  GI50: 0.97 µM
Breast cancer; Homo sapiens, Breast cancer subpanel, five-dose, read-out: LC50 MG_MID
  CC50: 16.1 µM
Colon Cancer; Colon Cancer subpanel, five-dose
  TGI MG_MID: 2.03 µM
Colon Cancer; Colon Cancer, MG_MID60/subpanel MG_MID
  SI (TGI): 1.35
Colon Cancer; Homo sapiens, Colon Cancer subpanel, five-dose, read-out: GI50 MG_MID
  GI50: 0.94 µM
Colon Cancer; Homo sapiens, Colon Cancer subpanel, five-dose, read-out: LC50 MG_MID
  CC50: 5.92 µM
Leukemia
  SI (TGI): 1.12
Melanoma; Homo sapiens, Melanoma subpanel, five-dose, read-out: GI50 MG_MID
  GI50: 0.93 µM
Melanoma; Homo sapiens, Melanoma subpanel, five-dose, read-out: LC50 MG_MID
  CC50: 4.94 µM
Melanoma; Melanoma subpanel, five-dose
  TGI MG_MID: 1.93 µM
Melanoma; Melanoma, MG_MID60/subpanel MG_MID
  SI (TGI): 1.42
NSC lung cancer; Homo sapiens, NSC lung cancer subpanel, five-dose, read-out: GI50 MG_MID
  GI50: 1.18 µM
NSC lung cancer; Homo sapiens, NSC lung cancer subpanel, five-dose, read-out: LC50 MG_MID
  CC50: 17 µM
NSC lung cancer; NSC lung cancer subpanel, five-dose
  TGI MG_MID: 3.60 µM
NSC lung cancer; NSCL cancer, MG_MID60/subpanel MG_MID
  SI (TGI): 0.76
Ovarian cancer; Homo sapiens, Ovarian cancer subpanel, five-dose, read-out: GI50 MG_MID
  GI50: 1.19 µM
Ovarian cancer; Homo sapiens, Ovarian cancer subpanel, five-dose, read-out: LC50 MG_MID
  CC50: 16.2 µM
Ovarian cancer; Ovarian Cancer, MG_MID60/subpanel MG_MID
  SI (TGI): 0.77
Ovarian cancer; Ovarian cancer subpanel, five-dose
  TGI MG_MID: 3.55 µM
Prostate cancer; Homo sapiens, Prostate cancer subpanel, five-dose, read-out: GI50 MG_MID
  GI50: 1.27 µM
Prostate cancer; Homo sapiens, Prostate cancer subpanel, five-dose, read-out: LC50 MG_MID
  CC50: 18.4 µM
Prostate cancer; Prostate cancer subpanel, five-dose
  TGI MG_MID: 4.40 µM
Prostate cancer; Prostate cancer, MG_MID60/subpanel MG_MID
  SI (TGI): 0.62
Renal Cancer; Homo sapiens, Renal cancer subpanel, five-dose, read-out: GI50 MG_MID
  GI50: 0.95 µM
Renal Cancer; Homo sapiens, Renal cancer subpanel, five-dose, read-out: LC50 MG_MID
  LC50 (50% net cell kill): 8.38 µM
Renal Cancer; Renal Cancer, MG_MID60/subpanel MG_MID
  SI (TGI): 1.08
Renal Cancer; Renal cancer subpanel, five-dose
  TGI MG_MID: 2.53 µM
A549/ATCC; Homo sapiens
  GI50: 1.47 µM
A549/ATCC; [1]
  CC50: 21.8 µM
A549/ATCC
  TGI: 5.98 µM
NCI-H226; Homo sapiens
  GI50: 1.78 µM
NCI-H226; [1]
  CC50: 28.7 µM
NCI-H226
  TGI: 7.01 µM
NCI-H322M; Homo sapiens
  GI50: 1.57 µM
NCI-H322M; [1]
  CC50: 16.8 µM
NCI-H322M
  TGI: 5.43 µM
NCI-H460; Homo sapiens
  GI50: 0.913 µM
NCI-H460; [1]
  CC50: 3.27 µM
NCI-H460
  TGI: 1.75 µM
NCI-H522; Homo sapiens
  GI50: 0.831 µM
NCI-H522; [1]
  CC50: 3.69 µM
NCI-H522
  TGI: 1.75 µM
COLO 205; Homo sapiens
  GI50: 1.02 µM
COLO 205; [1]
  CC50: 14.5 µM
COLO 205
  TGI: 2.37 µM
HCT-116; Homo sapiens
  GI50: 0.798 µM
HCT-116; [1]
  CC50: 3.09 µM
HCT-116
  TGI: 1.57 µM
HT29; Homo sapiens, HT-29, five-dose
  GI50: 0.913 µM
HT29; Homo sapiens, HT-29, five-dose, read-out: LC50 (the source's name)
  CC50: 4.59 µM
HT29; five-dose
  TGI: 2.05 µM
KM12; Homo sapiens
  GI50: 1.03 µM
KM12; [1]
  CC50: 4.79 µM
KM12
  TGI: 2.22 µM
SNB-19; Homo sapiens
  GI50: 0.849 µM
SNB-19; [1]
  CC50: 3.47 µM
SNB-19
  TGI: 1.72 µM
OVCAR-3; Homo sapiens
  GI50: 1.1 µM
OVCAR-3; [1]
  CC50: 6.52 µM
OVCAR-3
  TGI: 2.44 µM
NCI/ADR-RES; Homo sapiens
  GI50: 1.08 µM
NCI/ADR-RES; [1]
  CC50: 18.3 µM
NCI/ADR-RES
  TGI: 3.24 µM
786-0; Homo sapiens
  GI50: 0.814 µM
786-0; [1]
  CC50: 3.56 µM
786-0
  TGI: 1.70 µM
ACHN; Homo sapiens
  GI50: 1.33 µM
  LC50: 14.8 µM
ACHN
  TGI: 4.38 µM
MCF7; Homo sapiens
  GI50: 0.892 µM
MCF7; [1]
  CC50: 4.63 µM
MCF7
  TGI: 2.03 µM
MDA-MB-468; Homo sapiens
  GI50: 0.931 µM
MDA-MB-468; [1]
  CC50: 9.27 µM
MDA-MB-468
  TGI: 2.32 µM
